Data reported in patent US8624022B2, “Substituted aniline derivatives” (UCB Pharma, S.A., priority 2006, dated 2014).

What was measured:
[1] = target: β-1,3-glucan synthase from Aspergillus fumigatus (Aspergillus fumigatus, UniProt Q4WLT4); assay: Glucan synthase assay (membrane preparation); format: biochemical; conditions: UDP-[3H]-glucose incorporation, 30° C., 120 minutes, read-out: A. fumigatus Glucan Synth IC50
Procedure: (§1) The glucan synthase assay follows the incorporation of tritiated UDP-glucose into acid insoluble β-glucan as catalysed by the glucan synthase activity present in membrane preparations from Candida albicans and Aspergillus fumigatus. UDP-[^3H]-glucose (ca 0.01 μCi) is added to 100 μl assay buffer (50 mM Tris-Cl, pH8.0, 8% glycerol, 1 mM EDTA, 1.5 mM KF, 1 mM DTT, 20 μM GTPγS, 600 μM UDP-glucose) and the reaction initiated by the addition of 2.5 μl of enzyme preparation.
(§2) After incubation at 30° C. for 120 minutes, 10 μl of 30 mg/ml BSA is added with mixing and the reaction is terminated with 110 μl ice-cold 20% TCA. The precipitate is collected on a GF/B filter plate and washed three times with 200 μl water. Once dry, 200 μl of Microscint20 is added to each well and the plate is read on a Top-count scintillation counter.

[2] = target: β-1,3-glucan synthase from Candida albicans (Candida albicans, UniProt O13428); assay: Glucan synthase assay (membrane preparation); format: biochemical; conditions: UDP-[3H]-glucose incorporation, 30° C., 120 minutes, read-out: C. albicans Glucan Synth IC50
Procedure: as §1, §2

Aspergillus fumigatus = assay: Proliferation assay (growth, OD600nm); format: cell-based; conditions: whole organism growth, OD600nm over 6 hours at 25° C.
Procedure: (§3) Overnight cultures of organism were diluted back to an OD600nm of 0.1 in fresh media. Test compounds were added in a final concentration of 0.5% DMSO and the OD600nm was followed over 6 hours incubation at 25° C. Compounds described herein were screened to determine their activity as inhibitors of β-1,3-glucan synthase from Candida albicans and Aspergillus fumigatus and for their ability to inhibit the growth of Candida albicans and Aspergillus fumigatus whole organisms.

Candida albicans = assay: Proliferation assay (growth, OD600nm); format: cell-based; conditions: whole organism growth, OD600nm over 6 hours at 25° C.
Procedure: as §3

Sequence of β-1,3-glucan synthase from Candida albicans (O13428 1-1897): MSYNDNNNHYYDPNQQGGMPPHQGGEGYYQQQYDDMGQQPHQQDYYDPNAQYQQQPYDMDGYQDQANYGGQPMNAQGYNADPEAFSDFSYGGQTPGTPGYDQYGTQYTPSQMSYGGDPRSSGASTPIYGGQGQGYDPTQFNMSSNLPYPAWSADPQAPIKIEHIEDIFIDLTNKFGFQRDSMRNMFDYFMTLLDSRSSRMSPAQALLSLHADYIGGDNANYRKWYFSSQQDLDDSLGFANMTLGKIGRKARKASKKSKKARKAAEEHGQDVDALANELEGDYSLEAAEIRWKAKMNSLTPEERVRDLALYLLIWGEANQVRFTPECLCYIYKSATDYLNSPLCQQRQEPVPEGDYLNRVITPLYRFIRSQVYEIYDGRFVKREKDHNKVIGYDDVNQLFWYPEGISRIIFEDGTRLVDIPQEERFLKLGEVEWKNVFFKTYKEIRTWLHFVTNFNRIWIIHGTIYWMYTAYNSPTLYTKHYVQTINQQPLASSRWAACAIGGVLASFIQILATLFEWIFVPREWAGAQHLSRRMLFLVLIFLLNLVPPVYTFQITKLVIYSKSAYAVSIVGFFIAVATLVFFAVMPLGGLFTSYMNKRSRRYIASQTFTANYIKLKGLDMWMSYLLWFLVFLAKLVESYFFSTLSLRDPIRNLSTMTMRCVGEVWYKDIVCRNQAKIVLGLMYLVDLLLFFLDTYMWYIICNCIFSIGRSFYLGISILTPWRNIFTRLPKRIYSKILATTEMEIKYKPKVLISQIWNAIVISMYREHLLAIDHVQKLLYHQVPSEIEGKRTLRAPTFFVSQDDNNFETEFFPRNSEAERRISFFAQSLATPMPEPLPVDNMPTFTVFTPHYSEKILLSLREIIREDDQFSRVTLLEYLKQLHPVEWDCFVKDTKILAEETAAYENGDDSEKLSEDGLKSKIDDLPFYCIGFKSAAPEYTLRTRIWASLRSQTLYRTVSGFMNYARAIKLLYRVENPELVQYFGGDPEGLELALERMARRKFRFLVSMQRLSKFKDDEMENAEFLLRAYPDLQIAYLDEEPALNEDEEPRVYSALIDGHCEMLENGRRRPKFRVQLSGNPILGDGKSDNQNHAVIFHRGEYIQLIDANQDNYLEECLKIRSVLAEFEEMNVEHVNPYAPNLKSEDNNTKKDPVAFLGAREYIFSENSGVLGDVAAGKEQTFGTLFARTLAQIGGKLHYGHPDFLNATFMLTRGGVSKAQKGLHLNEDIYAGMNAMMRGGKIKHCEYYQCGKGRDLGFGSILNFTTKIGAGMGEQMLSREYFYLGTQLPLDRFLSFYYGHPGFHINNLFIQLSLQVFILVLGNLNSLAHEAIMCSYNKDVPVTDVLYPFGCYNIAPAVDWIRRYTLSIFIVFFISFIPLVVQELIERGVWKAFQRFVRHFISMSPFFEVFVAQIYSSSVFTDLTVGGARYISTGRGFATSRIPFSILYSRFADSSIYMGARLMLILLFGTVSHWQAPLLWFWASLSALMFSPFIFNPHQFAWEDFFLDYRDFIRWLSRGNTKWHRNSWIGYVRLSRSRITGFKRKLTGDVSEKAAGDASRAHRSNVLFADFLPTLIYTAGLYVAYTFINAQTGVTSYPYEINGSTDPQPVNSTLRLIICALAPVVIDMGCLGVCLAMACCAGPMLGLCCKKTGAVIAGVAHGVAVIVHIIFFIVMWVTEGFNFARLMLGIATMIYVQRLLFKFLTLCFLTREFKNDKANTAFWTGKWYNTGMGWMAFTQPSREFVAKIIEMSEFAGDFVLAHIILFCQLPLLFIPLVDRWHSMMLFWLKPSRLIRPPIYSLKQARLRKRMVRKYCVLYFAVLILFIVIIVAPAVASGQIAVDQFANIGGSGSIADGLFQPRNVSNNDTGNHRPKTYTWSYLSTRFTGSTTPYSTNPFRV
Sequence of β-1,3-glucan synthase from Aspergillus fumigatus (Q4WLT4 1-1904): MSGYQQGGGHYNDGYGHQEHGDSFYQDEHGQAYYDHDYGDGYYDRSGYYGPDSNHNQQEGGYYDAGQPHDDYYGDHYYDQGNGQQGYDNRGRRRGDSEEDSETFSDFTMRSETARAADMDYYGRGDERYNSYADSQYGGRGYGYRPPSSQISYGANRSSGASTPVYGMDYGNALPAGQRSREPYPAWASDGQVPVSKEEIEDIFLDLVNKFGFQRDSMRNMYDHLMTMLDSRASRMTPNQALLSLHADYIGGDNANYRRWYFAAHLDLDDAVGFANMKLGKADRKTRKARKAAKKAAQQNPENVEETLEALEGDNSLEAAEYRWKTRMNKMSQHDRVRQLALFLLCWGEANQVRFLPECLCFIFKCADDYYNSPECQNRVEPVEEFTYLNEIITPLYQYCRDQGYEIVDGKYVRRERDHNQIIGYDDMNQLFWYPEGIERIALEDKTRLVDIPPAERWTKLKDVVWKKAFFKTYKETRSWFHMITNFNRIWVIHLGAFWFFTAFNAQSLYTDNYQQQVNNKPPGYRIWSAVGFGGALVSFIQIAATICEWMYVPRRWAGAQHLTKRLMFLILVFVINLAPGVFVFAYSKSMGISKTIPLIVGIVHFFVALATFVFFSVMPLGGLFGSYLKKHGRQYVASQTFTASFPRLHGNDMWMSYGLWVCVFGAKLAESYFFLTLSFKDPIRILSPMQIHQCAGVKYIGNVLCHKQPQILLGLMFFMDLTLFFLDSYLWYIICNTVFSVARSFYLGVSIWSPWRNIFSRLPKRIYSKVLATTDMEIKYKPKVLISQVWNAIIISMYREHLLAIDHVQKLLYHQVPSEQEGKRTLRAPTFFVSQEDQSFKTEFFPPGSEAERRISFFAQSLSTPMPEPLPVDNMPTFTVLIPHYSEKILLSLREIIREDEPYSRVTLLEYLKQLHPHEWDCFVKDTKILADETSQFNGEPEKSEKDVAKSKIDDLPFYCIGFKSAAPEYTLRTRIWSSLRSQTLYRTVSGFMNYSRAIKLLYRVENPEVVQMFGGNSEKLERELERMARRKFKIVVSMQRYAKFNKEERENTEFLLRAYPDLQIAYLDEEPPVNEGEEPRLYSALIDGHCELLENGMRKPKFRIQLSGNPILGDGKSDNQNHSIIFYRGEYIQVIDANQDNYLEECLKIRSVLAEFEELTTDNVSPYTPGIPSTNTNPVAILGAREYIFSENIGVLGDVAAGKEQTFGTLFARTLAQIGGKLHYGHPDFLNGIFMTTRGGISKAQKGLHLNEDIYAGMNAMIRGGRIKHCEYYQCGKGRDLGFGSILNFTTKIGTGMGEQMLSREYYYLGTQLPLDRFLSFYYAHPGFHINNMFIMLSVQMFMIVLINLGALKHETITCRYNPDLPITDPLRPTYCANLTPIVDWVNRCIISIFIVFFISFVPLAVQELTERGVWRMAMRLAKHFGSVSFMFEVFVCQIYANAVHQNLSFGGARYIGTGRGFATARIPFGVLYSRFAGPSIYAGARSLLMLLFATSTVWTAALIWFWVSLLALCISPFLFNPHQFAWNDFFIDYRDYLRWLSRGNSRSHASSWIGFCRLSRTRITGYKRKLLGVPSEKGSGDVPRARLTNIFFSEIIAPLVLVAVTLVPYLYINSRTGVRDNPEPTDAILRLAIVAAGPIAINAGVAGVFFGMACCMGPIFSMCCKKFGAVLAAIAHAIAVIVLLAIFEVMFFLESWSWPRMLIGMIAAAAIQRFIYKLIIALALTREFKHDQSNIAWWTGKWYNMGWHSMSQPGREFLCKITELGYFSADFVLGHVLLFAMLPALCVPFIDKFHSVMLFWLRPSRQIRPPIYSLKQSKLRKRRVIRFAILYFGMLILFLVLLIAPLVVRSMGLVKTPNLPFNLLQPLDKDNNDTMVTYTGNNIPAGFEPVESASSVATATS

N[C@H]1CCN(C(=O)CN(C(=O)/C=C/c2ccccc2)c2ccc(Oc3ccccc3)cc2)C1 [OGT4344, (E)-N-[2-((S)-3-Aminopyrrolidin-1-yl)-2-oxo-ethyl]-N-(4-phenoxyphenyl)-3-phenylacrylamide]
IC50 [1]: 49 µM | IC50 [2]: 34 µM | IC50 (Aspergillus fumigatus): 12 µM | IC50 (Candida albicans): 27 µM

N[C@H]1CCN(C(=O)CN(C(=O)/C=C/c2ccccc2)c2ccc(-c3cccc(OC(F)(F)F)c3)cc2)C1 [OGT4325, (E)-N-[2-((S)-3-Aminopyrrolidin-1-yl)-2-oxo-ethyl]-3-phenyl-N-(3′-trifluoromethoxy-biphenyl-4-yl)-acrylamide]
IC50 [1]: 15.6 µM | IC50 [2]: 8.5 µM | IC50 (Candida albicans): 8 µM

N[C@H]1CCN(C(=O)CN(CC(=O)NCc2cc(C(F)(F)F)cc(C(F)(F)F)c2)c2cccc(Oc3ccccc3)c2)C1 [OGT4165, 2-[[2-((S)-3-Aminopyrrolidin-1-yl)-2-oxo-ethyl]-(3-phenoxyphenyl)amino]-N-[3,5-bis-(trifluoromethyl)benzyl]acetamide]
IC50 [1]: 6.2 µM | IC50 [2]: 2.7 µM | IC50 (Aspergillus fumigatus): 43 µM | IC50 (Candida albicans): 19 µM

N[C@H]1CCN(C(=O)CN(CC(=O)NCc2cccc(Cl)c2)c2ccc(Oc3ccccc3)cc2)C1 [OGT4154, 2-[[2-((S)-3-Aminopyrrolidin-1-yl)-2-oxo-ethyl]-(4-phenoxyphenyl)amino]-N-(3-chlorobenzyl)acetamide]
IC50 (Aspergillus fumigatus): 12 µM | IC50 (Candida albicans): 22 µM

CCOC(=O)c1cccc(-c2ccc(N(CC(=O)N3CC[C@H](N)C3)C(=O)/C=C/c3ccccc3)cc2)c1 [OGT4355, 4′-{[2-((S)-3-Aminopyrrolidin-1-yl)-2-oxo-ethyl]-[(E)-(3-phenylacryloyl)]-amino}-biphenyl-3-carboxylic acid, ethyl ester]
IC50 (Aspergillus fumigatus): 4 µM | IC50 (Candida albicans): 18 µM

N[C@H]1CCN(C(=O)CN(CC(=O)NCc2cccc(Cl)c2)c2ccccc2Oc2ccccc2)C1 [OGT3935, 2-[[2-((S)-3-Aminopyrrolidin-1-yl)-2-oxo-ethyl]-(2-phenoxyphenyl)amino]-N-(3-chlorobenzyl)acetamide]
IC50 [1]: 38 µM | IC50 [2]: 12 µM | IC50 (Aspergillus fumigatus): 93 µM | IC50 (Candida albicans): 55 µM

N[C@H]1CCN(C(=O)CN(CC(=O)NCc2cc(F)cc(C(F)(F)F)c2)c2ccc(Oc3ccccc3)cc2)C1 [OGT4155, 2-[[2-((S)-3-Aminopyrrolidin-1-yl)-2-oxo-ethyl]-(4-phenoxyphenyl)amino]-N-[3-fluoro-5-(trifluoromethyl)benzyl]acetamide]
IC50 [1]: 5.2 µM | IC50 [2]: 5.4 µM | IC50 (Aspergillus fumigatus): 14 µM | IC50 (Candida albicans): 17 µM
